Source: US20130324508A1, “BIOMARKER FOR PROSTATE CANCER AND METHOD OF USING THE SAME” (UNIVERSITY OF TENNESSEE RESEARCH FOUNDATION, priority 2012, published 2013)

Columns and labels:
22Rv1 [1] = test: PSA and Runx 2II gene expression in 22Rv1 cells (real time RT-PCR); assay type: cell-based, human; conditions: for PSA gene expression / Runx 2II gene expression: 22Rv1, 8 hours stimulation, OC 80 ng/ml, arginine 30 mM, R1881 100 nM; for PSA gene expression: FIG. 4A; for Runx 2II gene expression: FIG. 4B
Experimental: (§1) Human tissue cDNAs were obtained from Clontech Laboratories, Inc. Total RNA from human prostate cancer cells was isolated with RNeasy Mini Kit (Qiagen Inc., Valencia, Calif.). RT-PCR was done using two-step RNA PCR (Perkin-Elmer). In separate reactions, 2.0 μg of DNase-treated total RNA was reverse-transcribed into cDNA with the respective reverse primers specified below and Moloney murine leukemia virus reverse transcriptase (Gibco Life Technologies, Inc.). Reactions were carried out at 42° C. for 60 min followed by 94° C. for 5 min and 5° C. for 5 min. The products of first-strand cDNA synthesis were directly amplified by PCR using AmpliTaq DNA polymerase (Perkin-Elmer). The primers for human GPRC6A are as follows: hGPRC6A.F203: […] (SEQ ID NO: 1) and hGPRC6A.R630: […] (SEQ ID NO: 2). For housekeeping gene control G3PDH gene, G3PDH.F143: […] (SEQ ID NO: 3) and G3PDH.R1050: […] (SEQ ID NO: 4). For quantitative real time RT-PCR assessment of PSA and Runx 2II genes expression, total RNA was isolated and reverse transcribed from 22Rv1 cells that stimulated with or without OC (80 ng/ml), arginine (30 mM) and R1881 (100 nM) as previously described using specific primer sets. The primers sequences were PSA. For: […] (SEQ ID NO: 5) and PSA.Rev: […] (SEQ ID NO: 6); Runx 2. For: […] (SEQ ID NO: 7) and Runx 2. Rev: […] (SEQ ID NO: 8), and the threshold cycle (Ct) of tested-gene product from the indicated genotype was normalized to the Ct for cyclophilin A as previously described (18).
(§2) After 8 hours stimulation, OC, arginine and R1881 stimulated PSA and Runx 2II gene expression in human prostate cancer 22Rv1 (FIG. 4A and FIG. 4B) and PC-3 cells (FIG. 4C and FIG. 4D). * indicates a significant difference from control and stimulation at p<0.05 respectively.
To investigate whether the observed ligand-induced PSA and Runx2 gene expression in the prostate cancer cells is due to simulation of GPRC6A, the response to GPRC6A ligands was examined after knock-down of GPRC6A. ERK activity was assessed in 22Rv1 stably transfected with GPRC6A siRNA-514 and compared this response to transfected cells with a random negative control siRNA plasmid, which were used as controls.

PC-3 [2] = test: PSA and Runx 2II gene expression in PC-3 cells (real time RT-PCR); assay type: cell-based, human; conditions: 8 hours stimulation; for PSA gene expression: FIG. 4C; for Runx 2II gene expression: FIG. 4D
Experimental: as §1, §2

PC-3 [3] = test: ERK activation in PC-3 prostate cancer cells (Western blot); assay type: cell-based, human; conditions: for OC and testosterone stimulated phospho-ERK activity: PC-3 transfected with siRNA, FIG. 5B; for phospho-ERK: PC-3 (androgen receptor negative), calcium 10 mM, zinc 0.2 mM, OC 20 ng/ml, arginine 20 mM, testosterone-BSA 60 nM, 5 min, FIG. 2B
Experimental: (§3) Briefly, human prostate cancer cells and the cells transfected with GPRC6A will be made quiescent by overnight incubation in serum-free DMEM/F12 containing 0.1% BSA and stimulated with various ligands at different doses. ERK activation will be assessed 5 to 30 minutes after treatment by immunoblotting using anti-phospho-ERK1/2 MAP kinase antibody (Cell Signaling Technology) corrected for the amount of ERK using an anti-ERK1/2 MAP Kinase antibody (Cell Signaling Technology) to measure ERK levels.
(§4) Referring to FIG. 2. […] Here, calcium (1-20 mM), zinc (0.2-0.8 mM), OC (5-60 ng/ml), arginine (5-30 mM), and testosterone-BSA (5-100 nM) are confirmed to be functional ligands for GPRC6A (16-17, 19). […] Calcium (10 mM), zinc (0.2 mM), OC (20 ng/ml), arginine (20 mM), and testosterone-BSA (60 nM) increased phospho-ERK in both of these cells. The HEK cells transfected with GPRC6A or without the plasmid cDNA of GPRC6A or 22Rv1 or PC-3 were incubated in Dulbecco's modified Eagle's medium/F-12 containing 0.1% bovine serum albumin quiescence media and exposed to the extracellular calcium, OC, arginine, or testosterone-BSA at indicated concentrations for 5 min, and ERK activation was determined as described under Materials and Methods. Representative blots are shown, and the results were verified in at least three independent experiments.
(§5) To confirm the importance of GPRC6A signaling in prostate cancer cell line, the response to GPRC6A ligands was accessed after knock-down of GPRC6A using siRNA. For these studies, ERK activity was assessed in 22Rv1 and PC-3 cells stably transfected with GPRC6A siRNA-202 and siRNA-514. These responses were compared control groups consisting of mock-transfected cells and transfected cells with a random negative control siRNA plasmid.

22Rv1 [4] = test: ERK activation in 22Rv1 prostate cancer cells (Western blot); assay type: cell-based, human; conditions: for OC and testosterone stimulated phospho-ERK activity: FIG. 5B; for phospho-ERK: 22Rv1 (androgen receptor positive), calcium 10 mM, zinc 0.2 mM, OC 20 ng/ml, arginine 20 mM, testosterone-BSA 60 nM, 5 min, FIG. 2B
Experimental: as §3, §4, §5

GPRC6A [5] = test: siRNA suppression of GPRC6A gene expression (RT-PCR); assay type: cell-based, human; conditions: compared to controls, FIG. 5A
Description: For GPRC6A knockdown experiments, two short interfering RNAs (siRNAs) (19 nucleotides each) have been designed from the hGPRC6A sequence (NM_148963) (SEQ ID NO: 9). These are GPRC6A siRNA-202: CCAGGAGTGTGTTGGCTTT (SEQ ID NO: 10) and siRNA-514: GCCACAGGTGGGTTATGAA (SEQ ID NO: 11). Two siRNA hairpins were synthesized and cloned into a pSilencer™ 4.1-CMV neo vector (Ambion). A circular pSilencer™ 4.1-CMV neo vector that expresses a hairpin siRNA with limited homology to any known sequence was used as a negative control. The constructs of siRNA duplexes have been stably transfected into human prostate cancer cells using Lipofectamine™ (Invitrogen) and were selected by G418 (Invitrogen). Successful knock down of GPRC6A will be confirmed by assessing RT-PCR analysis of GPRC6A expression.
as §5

22Rv1 or PC-3 = test: Cell proliferation by hemocytometer cell count; assay type: cell-based, human; conditions: 22Rv1 or PC-3, 72 h culture, versus control without added ligand; FIG. 3
Experimental: The prostate cancer cell lines 22Rv1, PC-3 and LNcaP and the prostate cell lined RWPE-1 derived from normal prostate were obtained from the American Type Culture Collection (Manassas, Va.). The prostate cells were maintained in RPMI 1640 supplemented with 10% fetal bovine serum (Gibco Life Technologies, Inc.). Cells (10^3 cells/well) were cultured in triplicate in a 96-well flat-bottomed microculture dish using RPMI 1640 containing 10% CFBS in the presence and absence of various concentrations of GPRC6A ligands, including: calcium, amino acids, calcimimetic and OC for 72 h. Cell proliferation was determined by counting cells with a hemocytometer (21).
Now referring to FIG. 3. To determine if GPRC6A ligands enhance prostate cell growth, changes were accessed in cell numbers in 22Rv1 and PC-3 cells exposed to different concentrations of extracellular calcium or OC over a three-day culture period. […] Cell proliferation was determined by counting cells in a hemocytometer method as described in Materials and methods. In all of the above studies, values for relative cell proliferation (expressed as percent of control) represent the mean±SEM of a minimum of three separate experiments. * indicates a significant difference from control and stimulation at p<0.05, respectively.

[6] = tested on: non-transfected HEK-293 cells; test: ERK activation in non-transfected HEK-293 cells (Western blot); assay type: cell-based; conditions: same ligand concentrations, 5 min
Experimental: as §3, §4

22Rv1 [7] = test: Chemotaxis assay of 22Rv1 cells; assay type: cell-based, human; conditions: migration toward calcium or OC, various concentrations; FIG. 6C
Experimental: The migration of 22Rv1 cells stably expressing negative control siRNA and human GPRC6A-specific siRNA using a previously described chemotaxis assay (22). The migration index was calculated, and was defined as number of cells crossing the filter toward calcium or OC (various concentrations)/number of cells migrating toward medium alone (control). Each experiment was performed at least three times, in duplicate.
Now referring to FIG. 6. To assess whether GPRC6A mediates prostate cancer cells chemotaxis and metastases, the ability of calcium and OC to evoke chemotaxis of human prostate cancer cell 22Rv1 expressing GPRC6A was examined. The ligands of GPRC6A, OC, arginine and R1881 stimulated gene expression of PSA (FIG. A) and Runx2 (FIG. B) were attenuated by GPRC6A siRNA in 22Rv1, human prostate cancer cells. […] The experiments were described in Materials and methods. In all of the above studies, values for relative cell proliferation (expressed as percent of control) represent the mean±SEM of a minimum of three separate experiments.

GPRC6A [8] = test: ERK activation in HEK-293 cells transfected with GPRC6A (Western blot); assay type: cell-based; conditions: HEK-293 overexpressing GPRC6A; 5 min; calcium 1-20 mM, zinc 0.2-0.8 mM, OC 5-60 ng/ml, arginine 5-30 mM, testosterone-BSA 5-100 nM; FIG. 2A
Experimental: as §3, §4

[9] = 22Rv1 stably transfected with siRNA
[10] = PC-3 stably transfected with siRNA

C[C@]1(O)CC[C@H]2[C@@H]3CCC4=CC(=O)CCC4=C3C=C[C@@]21C [R1881, Methytrienolone]
PSA gene expression (22Rv1 [1]): stimulated | Runx 2II gene expression (22Rv1 [1]): stimulated | PSA gene expression (PC-3 [2]): stimulated | Runx 2II gene expression (PC-3 [2]): stimulated

GPRC6A siRNA-202: siRNA, 19 nucleotides, CCAGGAGTGTGTTGGCTTT (SEQ ID NO: 10), hairpin cloned into pSilencer 4.1-CMV neo vector
OC and testosterone stimulated phospho-ERK activity (PC-3 [3]): significantly decreased | OC and testosterone stimulated phospho-ERK activity (22Rv1 [4]; 22Rv1 transfected with siRNA): significantly decreased | ERK phosphorylation by extracellular calcium, testosterone, arginine and OC (22Rv1 [4]; 22Rv1 transfected with siRNA, FIG. 5C): failed to stimulate | mRNA expression of GPRC6A (GPRC6A [5]; [9]): Decreased | mRNA expression of GPRC6A (GPRC6A [5]; [10]): Decreased

siRNA-514: siRNA, 19 nucleotides, GCCACAGGTGGGTTATGAA (SEQ ID NO: 11), hairpin cloned into pSilencer 4.1-CMV neo vector
OC and testosterone stimulated phospho-ERK activity (PC-3 [3]): significantly decreased | OC and testosterone stimulated phospho-ERK activity (22Rv1 [4]; 22Rv1 transfected with siRNA): significantly decreased | mRNA expression of GPRC6A (GPRC6A [5]; [9]): Decreased | mRNA expression of GPRC6A (GPRC6A [5]; [10]): Decreased | ligand-induced mRNA expression of PSA (22Rv1 [1]; 22Rv1 stably transfected with siRNA versus negative control siRNA, FIG. 6A): Significantly decreased | ligand-induced mRNA expression of Runx2 (22Rv1 [1]; 22Rv1 stably transfected with siRNA versus negative control siRNA, FIG. 6B): Significantly decreased

[Ca+2].[Cl-].[Cl-] [calcium, calcium chloride]
increase in cell number (22Rv1 or PC-3): ~30% | ERK response [6]: failed to respond | phospho-ERK (PC-3 [3]): increased | phospho-ERK (22Rv1 [4]): increased | chemotaxis of 22Rv1 prostate cancer cells (22Rv1 [7]): induced the chemotaxis | stimulation of ERK activity (GPRC6A [8]): dose-dependent stimulation

N=C(N)NCCC[C@H](N)C(=O)O [arginine, L-Arginine]
ERK response [6]: failed to respond | phospho-ERK (PC-3 [3]): increased | phospho-ERK (22Rv1 [4]): increased | PSA gene expression (22Rv1 [1]): stimulated | Runx 2II gene expression (22Rv1 [1]): stimulated | PSA gene expression (PC-3 [2]): stimulated | Runx 2II gene expression (PC-3 [2]): stimulated | stimulation of ERK activity (GPRC6A [8]): dose-dependent stimulation

[Cl-].[Cl-].[Zn+2] [zinc, zinc chloride]
ERK response [6]: failed to respond | phospho-ERK (PC-3 [3]): increased | phospho-ERK (22Rv1 [4]): increased | stimulation of ERK activity (GPRC6A [8]): dose-dependent stimulation
